Values of other authors, collected in patent publication US10563263B2, “Genetic polymorphisms associated with statin response and cardiovascular diseases, methods of detection and uses thereof” (CELERA CORPORATION, priority 2010, dated 2020).

System: major cardiovascular events
Settings: JUPITER Study, 17,802 individuals (Ridker et al. 2008); cited from earlier work

CC(C)c1nc(N(C)S(C)(=O)=O)nc(-c2ccc(F)cc2)c1/C=C/[C@@H](O)C[C@@H](O)CC(=O)O [rosuvastatin]
incidence of major cardiovascular events (MI, stroke, arterial revascularization, hospitalization for unstable angina, death from cardiovascular causes): significantly reduced the incidence of major cardiovascular events
